Results on 18 molecules are retold here after patent US20250221988A1 (Cullgen (Shanghai), Inc., priority 2022, published 2025).

One experiment deals with MOLM-13 cells. Nature of the experiment: Cell viability assay (CellTiter-Glo) in MOLM-13 cells. It is filed as cell-based.
Another experiment relates to MV4;11 cells. Nature of the experiment: Cell viability assay (CellTiter-Glo) in MV4;11 cells. The experiment is classed as cell-based. The note with it: read-out: MV4. The essentials: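 After three days' exposure to 3-fold serial compound dilutions (8 or 12 points), viability of cells seeded at 5000/well is read by CellTiter-Glo. Runs were done alone or combined with gilteritinib at 10 nM (MV4;11) or 20 nM (MOLM-13); IC50 from nonlinear regression.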
In general terms: ATP-based viability assays read luminescence as a measure of living cells.

Setting [1] is: Homo sapiens, 72 h, MOLM-13 cells, compound alone, three days, read-out: MOLM-13 IC50.
Setting [2] is: MOLM-13 cells, with gilteritinib, three days, read-out: MOLM-13 IC50 (nM) + 10 nM Gil.
Setting [3] is: Homo sapiens, MV4-11, 72 h, MV4;11 cells, compound alone, three days, 11 IC50.
Where [4] appears, read: MV4;11 cells, with 10 nM gilteritinib, three days, 11 IC50 (nM) + 10 nM Gil.
[5] abbreviates: Homo sapiens, MOLM-13, 72 h, read-out: MOLM-13 IC50 (nM).
Where [6] appears, read: read-out: MOLM-13 IC50 (nM) + 10 nM Gil, MOLM-13 cells, with gilteritinib, three days.
The mark [7] stands for this setting: Homo sapiens, MV4-11, 72 h, 11 IC50 (nM).
The mark [8] stands for this setting: 11 IC50 (nM) + 10 nM Gil, MV4;11 cells, with 10 nM gilteritinib, three days.

Molecules are shown by their SMILES. Where two headings read alike, the source gives them in different places.

On to `Cc1cccc2cn([C@H]3C[C@H](CNc4ccc5c(c4)C(=O)N(C4CCC(=O)NC4=O)C5=O)C3)nc12` (stereo partly drawn) [GS-694, 2-(2,6-Dioxopiperidin-3-yl)-5-(((trans-3-(7-methyl-2H-indazol-2-yl)cyclobutyl)methyl)amino)isoindoline-1,3-dione], for which the IC50 is above 1000 nM in the experiment on MOLM-13 cells (setting [1]), 100 to 1000 nM in the experiment with MOLM-13 cells (setting [2]), above 1000 nM with MV4;11 cells (setting [3]) and 100 to 1000 nM in the experiment on MV4;11 cells (setting [4]).

With `CC(C)n1cc2ccnc(-c3cn([C@H]4C[C@H](CNc5ccc6c(c5)C(=O)N(C5CCC(=O)NC5=O)C6=O)C4)nc3C3CC3)c2n1` (stereo partly drawn) [GS-660, 5-(((Trans-3-(3-cyclopropyl-4-(2-isopropyl-2H-pyrazolo[3,4-c]pyridin-7-yl)-1H-pyrazol-1-yl)cyclobutyl)methyl)amino)-2-(2,6-dioxopiperidin-3-yl)isoindoline-1,3-dione], the IC50 with MOLM-13 cells (setting [1]), in the experiment with MOLM-13 cells (setting [2]), with MV4;11 cells (setting [3]) and in the experiment on MV4;11 cells (setting [4]) was below 10 nM each time.

Turning to `N[C@H]1C[C@@H](n2ncc3cnc(-c4cn([C@H]5C[C@H](CNc6ccc7c(c6)C(=O)N(C6CCC(=O)NC6=O)C7=O)C5)nc4C4CC4)cc32)C1` (stereo partly drawn) [GS-778, 5-(((Trans-3-(4-(1-(cis-3-aminocyclobutyl)-1H-pyrazolo[4,3-c]pyridin-6-yl)-3-cyclopropyl-1H-pyrazol-1-yl)cyclobutyl)methyl)amino)-2-(2,6-dioxopiperidin-3-yl)isoindoline-1,3-dione], the IC50 with MOLM-13 cells (setting [1]) is 10 to 100 nM; in the experiment with MOLM-13 cells (setting [2]), below 10 nM; in the experiment with MV4;11 cells (setting [3]) it was 10 to 100 nM; in the experiment on MV4;11 cells (setting [4]), below 10 nM.

Turning to `O=C1CCC(N2C(=O)c3ccc(NCCC4CC5(C4)CC(n4cc(-c6cnc7ccccc7n6)c(C6CC6)n4)C5)cc3C2=O)C(=O)N1` (stereo not shown) [GS-724, 5-((2-(6-(3-Cyclopropyl-4-(quinoxalin-2-yl)-1H-pyrazol-1-yl)spiro[3.3]heptan-2-yl)ethyl)amino)-2-(2,6-dioxopiperidin-3-yl)isoindoline-1,3-dione], the IC50 in the experiment on MOLM-13 cells (setting [1]) was 10 to 100 nM; in the experiment with MOLM-13 cells (setting [2]), below 10 nM; in the experiment with MV4;11 cells (setting [3]), below 10 nM; in the experiment on MV4;11 cells (setting [4]), below 10 nM.

For the molecule `O=C1CCC(N2C(=O)c3ccc(NC[C@H]4C[C@H](n5cc(Nc6ccccc6)c(C6CC6)n5)C4)cc3C2=O)C(=O)N1` (stereo partly drawn) [GS-739, 5-(((Trans-3-(3-Cyclopropyl-4-(phenylamino)-1H-pyrazol-1-yl)cyclobutyl)methyl)amino)-2-(2,6-dioxopiperidin-3-yl)isoindoline-1,3-dione], the IC50 was 10 to 100 nM in the experiment with MOLM-13 cells (setting [5]), below 10 nM in the experiment with MOLM-13 cells (setting [6]), 10 to 100 nM with MV4;11 cells (setting [7]) and below 10 nM with MV4;11 cells (setting [8]).

On to `CN1CC(c2ccc3ncc(-c4cn([C@H]5C[C@H](CNc6ccc7c(c6)C(=O)N(C6CCC(=O)NC6=O)C7=O)C5)nc4C4CC4)nc3c2)C1` (stereo partly drawn) [GS-655, 5-(((Trans-3-(3-cyclopropyl-4-(7-(1-methylazetidin-3-yl)quinoxalin-2-yl)-1H-pyrazol-1-yl)cyclobutyl)methyl)amino)-2-(2,6-dioxopiperidin-3-yl)isoindoline-1,3-dione], for which the IC50 was above 1000 nM in the experiment on MOLM-13 cells (setting [1]), 100 to 1000 nM in the experiment on MOLM-13 cells (setting [2]), 100 to 1000 nM in the experiment with MV4;11 cells (setting [3]) and 10 to 100 nM in the experiment with MV4;11 cells (setting [4]).

With `N[C@H]1C[C@@H](n2cc3cnc(-c4cn([C@H]5C[C@H](CNc6ccc7c(c6)C(=O)N(C6CCC(=O)NC6=O)C7=O)C5)nc4C4CC4)cc3n2)C1` (stereo partly drawn) [GS-785, 5-(((Trans-3-(4-(2-(cis-3-aminocyclobutyl)-2H-pyrazolo[4,3-c]pyridin-6-yl)-3-cyclopropyl-1H-pyrazol-1-yl)cyclobutyl)methyl)amino)-2-(2,6-dioxopiperidin-3-yl)isoindoline-1,3-dione], the IC50 with MOLM-13 cells (setting [1]) was 10 to 100 nM; with MOLM-13 cells (setting [2]), below 10 nM; in the experiment on MV4;11 cells (setting [3]), below 10 nM; with MV4;11 cells (setting [4]) it was below 10 nM.

`CC(C)n1ncc2c(-c3cn([C@H]4C[C@H](CNc5ccc6c(c5)C(=O)N(C5CCC(=O)NC5=O)C6=O)C4)nc3C3CC3)ncc(F)c21` (stereo partly drawn) [GS-791, 5-(((Trans-3-(3-Cyclopropyl-4-(7-fluoro-1-isopropyl-1H-pyrazolo[4,3-c]pyridin-4-yl)-1H-pyrazol-1-yl)cyclobutyl)methyl)amino)-2-(2,6-dioxopiperidin-3-yl)isoindoline-1,3-dione]: the IC50 is 10 to 100 nM in the experiment with MOLM-13 cells (setting [5]), 10 to 100 nM in the experiment with MOLM-13 cells (setting [6]), below 10 nM in the experiment with MV4;11 cells (setting [7]) and below 10 nM in the experiment with MV4;11 cells (setting [8]).

In the case of `O=C1CCC(N2C(=O)c3ccc(NC[C@H]4C[C@H](n5nc(C6CC6)cc5Cc5ccccc5)C4)cc3C2=O)C(=O)N1` (stereo partly drawn) [GS-741, 5-((Trans-3-(5-benzyl-3-cyclopropyl-1H-pyrazol-1-yl)cyclobutyl)methylamino)-2-(2,6-dioxopiperidin-3-yl)isoindoline-1,3-dione], the IC50 in the experiment on MOLM-13 cells (setting [1]) was 10 to 100 nM; in the experiment on MOLM-13 cells (setting [2]) it was 10 to 100 nM; in the experiment with MV4;11 cells (setting [3]) it was 10 to 100 nM; in the experiment on MV4;11 cells (setting [4]), below 10 nM.

`Cc1nc(-c2cn([C@H]3C[C@H](CNc4cc5c(cc4F)C(=O)N(C4CCC(=O)NC4=O)C5=O)C3)nc2C2CC2)ccc1F` (stereo partly shown) [GS-716]: the IC50 in the experiment on MOLM-13 cells (setting [1]) and in the experiment on MV4;11 cells (setting [3]) was above 1000 nM throughout.

`O=C1CCC(N2C(=O)c3ccc(NC[C@H]4C[C@H](n5cc(-n6ccc7cccnc76)c(C6CC6)n5)C4)cc3C2=O)C(=O)N1` (stereo partly drawn) [GS-751, 5-(((Trans-3-(3-cyclopropyl-4-(1H-pyrrolo[2,3-b]pyridin-1-yl)-1H-pyrazol-1-yl)cyclobutyl)methyl)amino)-2-(2,6-dioxopiperidin-3-yl)isoindoline-1,3-dione]: the IC50 with MOLM-13 cells (setting [1]) was 10 to 100 nM; with MOLM-13 cells (setting [2]) it was below 10 nM; in the experiment on MV4;11 cells (setting [3]) it was below 10 nM; with MV4;11 cells (setting [4]), below 10 nM.

For `O=C1CCC(N2C(=O)c3ccc(NC[C@H]4C[C@H](n5cc(-c6ccccc6C6CCNCC6)c(C6CC6)n5)C4)cc3C2=O)C(=O)N1` (stereo partly drawn) [GS-654, 5-(((Trans-3-(3-cyclopropyl-4-(2-(piperidin-4-yl)phenyl)-1H-pyrazol-1-yl)cyclobutyl)methyl)amino)-2-(2,6-dioxopiperidin-3-yl)isoindoline-1,3-dione], the IC50 is 100 to 1000 nM with MOLM-13 cells (setting [1]), 100 to 1000 nM with MOLM-13 cells (setting [2]), above 1000 nM with MV4;11 cells (setting [3]) and 10 to 100 nM in the experiment on MV4;11 cells (setting [4]).

In the case of `O=C1CCC(N2C(=O)c3ccc(NC[C@H]4C[C@H](n5cc(Nc6ccccn6)c(C6CC6)n5)C4)cc3C2=O)C(=O)N1` (stereo partly drawn) [GS-669, 5-(((Trans-3-(3-cyclopropyl-4-(pyridin-2-ylamino)-1H-pyrazol-1-yl)cyclobutyl)methyl)amino)-2-(2,6-dioxopiperidin-3-yl)isoindoline-1,3-dione], the IC50 in the experiment on MOLM-13 cells (setting [1]) is above 1000 nM; in the experiment on MOLM-13 cells (setting [2]), 100 to 1000 nM; in the experiment on MV4;11 cells (setting [3]), 100 to 1000 nM; in the experiment on MV4;11 cells (setting [4]) it was 100 to 1000 nM.

For the molecule `Cc1cc(F)cnc1-c1cn([C@H]2C[C@H](CNc3ccc4c(c3)C(=O)N(C3CCC(=O)NC3=O)C4=O)C2)nc1C(F)F` (stereo partly drawn) [GS-719, 5-(((Trans-3-(3-(Difluoromethyl)-4-(5-fluoro-3-methylpyridin-2-yl)-1H-pyrazol-1-yl)cyclobutyl)methyl)amino)-2-(2,6-dioxopiperidin-3-yl)isoindoline-1,3-dione], the IC50 with MOLM-13 cells (setting [1]) is 10 to 100 nM; in the experiment with MOLM-13 cells (setting [2]) it was below 10 nM; with MV4;11 cells (setting [3]), 10 to 100 nM; in the experiment on MV4;11 cells (setting [4]) it was below 10 nM.

As to `CC(C)n1ncc2ccnc(-c3cn([C@H]4C[C@H](CNc5ccc6c(c5)C(=O)N(C5CCC(=O)NC5=O)C6=O)C4)nc3C3CC3)c21` (stereo partly drawn) [GS-661, 5-(((Trans-3-(3-cyclopropyl-4-(1-isopropyl-1H-pyrazolo[3,4-c]pyridin-7-yl)-1H-pyrazol-1-yl)cyclobutyl)methyl)amino)-2-(2,6-dioxopiperidin-3-yl)isoindoline-1,3-dion], the IC50 with MOLM-13 cells (setting [5]) was 10 to 100 nM; in the experiment on MOLM-13 cells (setting [6]), below 10 nM; in the experiment with MV4;11 cells (setting [7]), 10 to 100 nM; in the experiment on MV4;11 cells (setting [8]) it was below 10 nM.

As for `Cn1ncc2nc(-c3cn([C@H]4C[C@H](CNc5ccc6c(c5)C(=O)N(C5CCC(=O)NC5=O)C6=O)C4)nc3C3CC3)ccc21` (stereo partly drawn) [GS-699, 5-(((Trans-3-(3-cyclopropyl-4-(1-methyl-1H-pyrazolo[4,3-b]pyridin-5-yl)-1H-pyrazol-1-yl)cyclobutyl)methyl)amino)-2-(2,6-dioxopiperidin-3-yl)isoindoline-1,3-dione], the IC50 with MOLM-13 cells (setting [1]) was 100 to 1000 nM; in the experiment on MOLM-13 cells (setting [2]), 10 to 100 nM; with MV4;11 cells (setting [3]) it was 10 to 100 nM; in the experiment on MV4;11 cells (setting [4]) it was 10 to 100 nM.

As to `O=C1CCC(N2C(=O)c3ccc(NC[C@H]4C[C@H](n5cc(NC6CCCCC6)c(C6CC6)n5)C4)cc3C2=O)C(=O)N1` (stereo partly drawn) [GS-667, 5-(((Trans-3-(4-(cyclohexylamino)-3-cyclopropyl-1H-pyrazol-1-yl)cyclobutyl)methyl)amino)-2-(2,6-dioxopiperidin-3-yl)isoindoline-1,3-dione], the IC50 was 10 to 100 nM with MOLM-13 cells (setting [5]), 10 to 100 nM in the experiment on MOLM-13 cells (setting [6]), 10 to 100 nM in the experiment on MV4;11 cells (setting [7]) and below 10 nM with MV4;11 cells (setting [8]).

For `O=C1CCC(N2C(=O)c3ccc(NC[C@H]4C[C@H](n5cc(-c6ncccc6[C@H]6C[C@H](O)C6)c(C6CC6)n5)C4)cc3C2=O)C(=O)N1` (stereo partly shown) [GS-772], the IC50 in the experiment with MOLM-13 cells (setting [1]) is 10 to 100 nM; in the experiment with MOLM-13 cells (setting [2]), below 10 nM; in the experiment with MV4;11 cells (setting [3]), 10 to 100 nM; in the experiment on MV4;11 cells (setting [4]), 10 to 100 nM.
